Assay results reported in patent publication US20240426838A1, “CRISPR/CAS-Associated Detection Assays, Methods and Kits” (BioPoint Pty Limited, priority 2021, published 2024).

Columns and labels:
Type in all cases: biochemical
Cas12a [1] = experiment: Evaluation of trans-cleavage activity of Cas12a with chemical enhancers (fluorescence readout); conditions: for fluorescence intensity, fold of that in the control: optimised concentrations, Texas Red ssDNA target, incubation time 2 h; for performance with ssRNA target: ssRNA target (FAM), 37° C. incubation; for optimum concentration leading to the highest trans-cleavage rate: sulfhydryl reductant
Description: For all trans-cleavage activity evaluation experiments, the CRISPR/Cas12a reaction mixture was prepared as follows: 1 μL 100 μM ([…]) of Cas12a protein was gently mixed with 5 μL 20 μM ([…]) gRNA in 3.6 mL 1×NEB 2.1 buffer. […] Different chemical enhancers (sulfhydryl reductant and surfactant) were first dissolved in MilliQ water to produce high concentration storage solutions, then a certain amount of storage solution was added into the standard CRISPR/Cas12a reaction mixture to realize the final reaction mixture with defined concentration of enhancers.
5 μL 1 μM single strand trigger DNA was applied in 100 μL prepared CRISPR/Cas12a reaction mixture for starting the CRISPR reaction process. SpectraMax i3x multi-Mode Microplate Reader (Molecular devices) was applied for the detection of fluorescence readout.

Cas12a [2] = experiment: Electrophoretic mobility shift assay of chemical enhancers on CRISPR/Cas12a; conditions: optimal concentrations (10 mM DTT, 500 μM TCEP, 1% PVA, 0.04% Brij23)
Description: This is because fluorescence process may be independently affected by chemical enhancers used here. Briefly, the standard CRISPR/Cas12a reaction mixture was prepared as per point 1 above, then chemical enhancers were added at concentrations determined to be optimal (10 mM DTT, 500 μM TCEP, 1% PVA, 0.04% Brij23), and the same volume of 1×PBS was also used as the control. […] Alternatively, 50 μL of CRISPR/Cas12a and the chemical enhancer mixture was firstly mixed with 1 μL different concentrations of target ssDNA (5 μM, 10 μM, 15 μM, 20 μM), and then either 1 μL 1 μM triggering ssDNA was added or 1 μL PBS as control. The reaction mixtures were incubated at 26° C. for 60 mins, and then deactivated at 65° C. for 15 mins. Afterwards, 10 μL of each deactivated reaction mixture was mixed with 2 μL 6× loading dye and loaded onto 3% Agarose gel with 1× GelRed nucleic acid dye for voltage-constant electrophoresis at 60V for 100 mins.

Cas13a = target: T1, Cas13a (Leptotrichia wadei, UniProt U2PSH1); experiment: Evaluation of trans-cleavage activity of chemically induced CRISPR/Cas13a system
T1 construct: Twinstrep (N); SUMO (N); His tag (only implied by HisTrap purification); host or cells: E. coli
T1 sequence (U2PSH1 whole entry): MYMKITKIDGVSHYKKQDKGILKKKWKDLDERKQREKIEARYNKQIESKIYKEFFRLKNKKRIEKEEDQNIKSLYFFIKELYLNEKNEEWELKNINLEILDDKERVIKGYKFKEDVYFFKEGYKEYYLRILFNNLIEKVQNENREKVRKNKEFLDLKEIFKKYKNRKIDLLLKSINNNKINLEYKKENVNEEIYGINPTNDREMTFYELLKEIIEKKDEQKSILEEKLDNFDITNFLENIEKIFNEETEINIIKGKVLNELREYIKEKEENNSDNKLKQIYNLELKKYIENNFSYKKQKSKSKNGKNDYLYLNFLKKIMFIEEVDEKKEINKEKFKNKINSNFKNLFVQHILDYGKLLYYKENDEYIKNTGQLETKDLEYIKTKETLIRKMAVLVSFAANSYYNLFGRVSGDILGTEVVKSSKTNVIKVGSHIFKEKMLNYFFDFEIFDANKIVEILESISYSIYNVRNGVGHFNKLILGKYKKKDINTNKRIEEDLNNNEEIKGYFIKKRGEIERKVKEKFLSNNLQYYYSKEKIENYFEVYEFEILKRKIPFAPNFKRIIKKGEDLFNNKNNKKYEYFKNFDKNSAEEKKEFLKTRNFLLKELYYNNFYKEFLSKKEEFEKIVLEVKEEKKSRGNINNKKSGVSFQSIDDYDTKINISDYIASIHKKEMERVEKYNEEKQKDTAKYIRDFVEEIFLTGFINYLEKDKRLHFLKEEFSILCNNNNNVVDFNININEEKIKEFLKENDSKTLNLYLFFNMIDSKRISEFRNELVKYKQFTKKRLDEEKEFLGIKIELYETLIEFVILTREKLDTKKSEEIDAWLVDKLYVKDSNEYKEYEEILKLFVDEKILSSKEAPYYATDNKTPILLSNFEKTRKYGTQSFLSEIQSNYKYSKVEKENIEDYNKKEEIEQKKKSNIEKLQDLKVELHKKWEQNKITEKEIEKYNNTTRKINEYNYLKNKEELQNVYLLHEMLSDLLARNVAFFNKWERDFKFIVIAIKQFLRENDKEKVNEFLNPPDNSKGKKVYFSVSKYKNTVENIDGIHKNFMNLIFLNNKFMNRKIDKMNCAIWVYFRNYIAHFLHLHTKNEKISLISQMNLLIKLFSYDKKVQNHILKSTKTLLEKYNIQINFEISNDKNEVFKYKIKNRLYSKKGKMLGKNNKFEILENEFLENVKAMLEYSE
Description: For all trans-cleavage evaluation experiments, the CRISPR/Cas13a reaction mixture was prepared as follows: 10 μL 4 μM (40 μmol) of Cas13a protein was gently mixed with 2 μL 20 μM (40 μmol) gRNA in 1 mL reaction buffer. Then, 6 μL 20 μM (120 μmol) of pre-synthesized ssRNA target (FAM) was added and well mixed to form the standard reaction mixture.
Diverse types of chemicals were first dissolved in MilliQ water to produce high concentration storage solutions, then a certain amount of storage solution was added into the standard CRISPR/Cas13a reaction mixture to realize the certain concentration of chemical involved final reaction mixture.
2 μL 1 μM single strand trigger RNA was applied in 100 μL prepared CRISPR/Cas13a reaction mixture for starting the CRISPR reaction process. ID3 plate reader was applied for the detection of fluorescence readout from FAM modified target with the excitation wavelength of 480 nm and emission wavelength of 520 nm.

Cas12a [3] = experiment: Optimization of chemical-based reaction buffer, RNA reporter based CRISPR/Cas12a system; conditions: chemicals added in NEB2.1 buffer; DTT 10 mM
Description: 10 μL 10 μM ([…]) Cas12a protein was gently mixed with 5 μL 20 μM ([…]) gRNA in 3.6 mL 1×NEB 2.1 buffer, which was diluted by Milli-Q water. Then, 6 μL 100 μM (0.6 nmol) ssRNA linked fluorescent reporter was added and well mixed to form the final reaction mixture. The prepared reaction mixture was kept on ice before use.
Three different chemicals were applied in the reaction buffer system, and the concentration of 1,4-dithiothreitol (DTT) was 10 mM, the concentration of Tris(2-carboxyethyl)phosphine hydrochloride (TCEP) was 0.5 mM, and the concentration of Polyvinyl alcohol (PVA) was 10 mg/mL.

Cas12a [4] = experiment: Trans-cleavage ability of antibody-Cas12a/gRNA (BAC) conjugate with ssDNA reporters; conditions: for reaction time to reach desired fluorescent signal intensity, faster than control: BAC conjugate, 10 mM DTT
Description: Firstly, 2 uL 100 μM (30 ug) Cas12a protein and 10 uL 20 μM gRNA were mixed in 30 uL NEB2.1 buffer to form the Cas12a/gRNA mixture solution. In the meanwhile, 3 uL modifier from the streptavidin conjugation kit (Abcam, ab102921) was mixed with 23 uL 1.3 mg/mL (30 ug) Cry104 antibody gently. Then, the two types of solutions were mixed together and incubated for 3 hours at room temperature. After the incubation, 3 uL quencher from the streptavidin conjugation kit (Abcam, ab102921) was added into the solution to stop the excess conjugation reaction. Finally, 50% glycerol (volume) was added into the prepared antibody-Cas12a/gRNA solution for long time storage in −20° C. freezer.
For comparison, an antibody-Cas12a conjugate was prepared according to the same procedure, where only Cas12a protein was mixed with the Cry104 antibody and modifier (i.e. without gRNA).
The standard CRISPR/Cas12a mixture was first prepared using Cry104-Cas12a/gRNA conjugate. Briefly, 100 pmol of Cry104-Cas12a/gRNA conjugate was added into 3.6 mL 1×NEB 2.1 buffer. Then, 6 μL 100 μM (0.6 nmol) ssDNA linked fluorescent reporter and 36 μL 1 M DTT were added and well mixed to form the final reaction mixture. The prepared reaction mixture was kept on ice before use.
In order to evaluate the trans-cleavage ability of Cry104-Cas12a/gRNA conjugate, 5 μL 1 μM triggering ssDNA was added into 100 μL prepared standard CRISPR/Cas12a mixture and incubated for 120 min at room temperature or 37° C. before fluorescence signal test using ID3 plate reader (Excitation wavelength of 570 nm and emission wavelength of 615 nm).

Compound | fluorescence signal relative to controls without DTT (Cas12a [1]; Cy5.5 ssDNA target, 120 min) | fluorescence intensity, fold of that in the control (Cas12a [1]) [fold] | performance with ssRNA target (Cas12a [1]) | optimum concentration leading to the highest trans-cleavage rate (Cas12a [1]; Cas12a) [mM] | effect in electrophoretic mobility shift assay (Cas12a [2]) | optimum concentration (Cas13a) [mM] | performance of RNA reporter based CRISPR/Cas12a biosensing system (Cas12a [3]) | reaction time to reach desired fluorescent signal intensity, faster than control (Cas12a [4]) [%] | reaction time to reach desired fluorescent signal intensity, faster than control (Cas12a [4]; 37° C.) [%] | fluorescence signal output, factor versus control reaction (Cas12a [4]; DTT 10 mM and 37° C.) | fluorescence signal increase of BAC conjugate (Cas12a [4]; DTT 10 mM, room temperature) [times] | optimum concentration of non-ionic surfactant (Cas12a [1]; Cas12a, Texas red DNA reporter) [%]
O[C@H](CS)[C@H](O)CS (racemic) [DTT, Dithiothreitol] | around three | 1.3 | Enhanced performances | 10 | increased cleavage of the target DNA | 5 | best performance | ~50 | ~70 | approximately 2 | ~1.4 | 
OCCS [2-ME, 2-Mercaptoethanol] |  | 3.4 |  | 1 |  |  |  |  |  |  |  | 
O=C(O)CCP(CCC(=O)O)CCC(=O)O [TCEP, Tris(2-carboxyethyl)phosphine] |  | 2.4 | Enhanced performances | 0.5 |  |  |  |  |  |  |  | 
Triton X-100 |  |  |  |  |  |  |  |  |  |  |  | 0.01
